Patent US11214803B2, “Modulators of YAP1 expression” (Ionis Pharmaceuticals, Inc., priority 2019, dated 2022)
Strand notation (5' to 3'): a small letter for the sugar, then the base; units joined by * are phosphorothioate-linked, units joined directly phosphodiester-linked; [ ] holds rarer units or linkages, { } end groups; capitals alone tell only the bases. k = constrained ethyl (cEt); [5mC] = 5-methylcytosine; d = 2'-deoxy (DNA)

Tested on: Yap1 mRNA
Test: Antisense inhibition of human Yap1 in A-431 cells by cEt gapmers, single dose (Example 2, RTS4814)
Type: cell-based
Conditions: Table 18; A-431 cells, 5,000 cells per well, free uptake, 2,000 nM modified oligonucleotide, approx. 48 hours; RTS4814; normalized to RIBOGREEN; Yap1 mRNA as percent of untreated control
Summary of the method: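 Single-dose knockdown screen of 3-10-3 cEt phosphorothioate gapmers at 2,000 nM added by free uptake to A-431 cells. After roughly 48 h, RNA was isolated and Yap1 transcript measured by RT-qPCR, with results given as % UTC.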

Question: For “1074596 (antisense kT*kT*k[5mC]*dT*dA*dT*d[5mC]*d[5mC]*dA*dG*dG*dG*dT*k[5mC]*kA*kA) [Compound 1074596]”, which “YAP1 (% UTC)” value is on record?
Answer: 12 % UTC

Question: “1074628 (antisense kG*k[5mC]*k[5mC]*dT*dG*dT*dT*dA*dT*dG*dA*dA*d[5mC]*k[5mC]*k[5mC]*kT) [Compound 1074628]” was tested. Which “YAP1 (% UTC)” value did it give?
Answer: 5 % UTC

Question: Which “YAP1 (% UTC)” value does the source give for “1074660 (antisense kA*kA*kT*dT*dT*d[5mC]*dA*dT*dT*dA*d[5mC]*dT*dA*k[5mC]*kT*k[5mC]) [Compound 1074660]” here?
Answer: 48 % UTC

Question: How did the “YAP1 (% UTC)” value turn out when “1074692 (antisense k[5mC]*k[5mC]*k[5mC]*d[5mC]*d[5mC]*d[5mC]*d[5mC]*dA*dA*dA*d[5mC]*dT*dT*kT*k[5mC]*k[5mC]) [Compound 1074692]” was run?
Answer: 101 % UTC

Same assay, conditions: Table 19; A-431 cells, 5,000 cells per well, free uptake, 2,000 nM modified oligonucleotide, approx. 48 hours; RTS4814; normalized to RIBOGREEN; Yap1 mRNA as percent of untreated control

Question: For “1074597 (antisense kA*kG*kT*dA*dT*dT*d[5mC]*dT*dA*dT*d[5mC]*d[5mC]*dA*kG*kG*kG) [Compound 1074597]”, which “YAP1 (% UTC)” value is on record?
Answer: 5 % UTC

Question: With “1074629 (antisense kG*kA*kG*dA*dT*dT*dT*dT*dA*dT*dG*d[5mC]*d[5mC]*kT*kG*kT) [Compound 1074629]” as the substance, how does the “YAP1 (% UTC)” value read?
Answer: 3 % UTC

Question: For “1074661 (antisense kG*kA*kA*dT*dT*dT*d[5mC]*dA*dT*dT*dA*d[5mC]*dT*kA*k[5mC]*kT) [Compound 1074661]”, which “YAP1 (% UTC)” value is on record?
Answer: 36 % UTC

Question: How did the “YAP1 (% UTC)” value turn out when “1074693 (antisense k[5mC]*k[5mC]*k[5mC]*d[5mC]*d[5mC]*d[5mC]*d[5mC]*d[5mC]*dA*dA*dA*d[5mC]*dT*kT*kT*k[5mC]) [Compound 1074693]” was run?
Answer: 92 % UTC

Same assay, conditions: Table 20; Yap1 mRNA, percent of untreated control; 3-10-3 cEt gapmers targeting SEQ ID NO.: 1 and 2

Question: How did the “YAP1 (% UTC)” value turn out when “1074598 (antisense k[5mC]*kT*kT*dA*dT*dA*dG*dT*dA*dT*dT*d[5mC]*dT*kA*kT*k[5mC]) [Compound 1074598]” was run?
Answer: 46 % UTC

Question: “1074630 (antisense kA*kG*kA*dG*dA*dT*dT*dT*dT*dA*dT*dG*d[5mC]*k[5mC]*kT*kG) [Compound 1074630]” was tested. Which “YAP1 (% UTC)” value did it give?
Answer: 5 % UTC

Question: With “1074662 (antisense kG*kG*kT*dA*dG*dA*dA*dT*dT*dT*d[5mC]*dA*dT*kT*kA*k[5mC]) [Compound 1074662]” as the substance, how does the “YAP1 (% UTC)” value read?
Answer: 30 % UTC

Question: With “1074694 (antisense k[5mC]*k[5mC]*k[5mC]*d[5mC]*d[5mC]*d[5mC]*d[5mC]*d[5mC]*d[5mC]*dA*dA*dA*d[5mC]*kT*kT*kT) [Compound 1074694]” as the substance, how does the “YAP1 (% UTC)” value read?
Answer: 79 % UTC

Same assay, conditions: Table 21; Yap1 mRNA, percent of untreated control; 3-10-3 cEt gapmers targeting SEQ ID NO.: 1 and 2

Question: Which “YAP1 (% UTC)” value does the source give for “1074599 (antisense kG*k[5mC]*kT*dA*dA*d[5mC]*dT*d[5mC]*dA*dA*dA*dA*d[5mC]*k[5mC]*kT*kT) [Compound 1074599]” here?
Answer: 12 % UTC

Question: With “1074631 (antisense k[5mC]*kA*kT*dA*dG*d[5mC]*dA*dG*d[5mC]*dT*dT*dT*dT*kG*k[5mC]*k[5mC]) [Compound 1074631]” as the substance, how does the “YAP1 (% UTC)” value read?
Answer: 9 % UTC

Question: For “1074663 (antisense k[5mC]*kA*kT*dT*d[5mC]*dT*dA*dG*dG*dT*dA*dG*dA*kA*kT*kT) [Compound 1074663]”, which “YAP1 (% UTC)” value is on record?
Answer: 79 % UTC

Question: “1074695 (antisense k[5mC]*k[5mC]*k[5mC]*d[5mC]*d[5mC]*dT*dA*dA*dA*dT*d[5mC]*dT*dT*k[5mC]*kA*k[5mC]) [Compound 1074695]” was tested. Which “YAP1 (% UTC)” value did it give?
Answer: 49 % UTC

Same assay, conditions: Table 22; Yap1 mRNA as percent of untreated control; 3-10-3 cEt gapmers; single dose

Question: “1074600 (antisense k[5mC]*kA*kG*d[5mC]*dT*dA*dA*d[5mC]*dT*d[5mC]*dA*dA*dA*kA*k[5mC]*k[5mC]) [Compound 1074600]” was tested. Which “YAP1 (% UTC)” value did it give?
Answer: 29 % UTC

Question: Which “YAP1 (% UTC)” value does the source give for “1074632 (antisense kT*k[5mC]*kA*dT*dA*dG*d[5mC]*dA*dG*d[5mC]*dT*dT*dT*kT*kG*k[5mC]) [Compound 1074632]” here?
Answer: 12 % UTC

Question: “1074664 (antisense kG*k[5mC]*kA*dT*dT*d[5mC]*dT*dA*dG*dG*dT*dA*dG*kA*kA*kT) [Compound 1074664]” was tested. Which “YAP1 (% UTC)” value did it give?
Answer: 49 % UTC

Question: How did the “YAP1 (% UTC)” value turn out when “1074696 (antisense kG*kT*k[5mC]*d[5mC]*d[5mC]*d[5mC]*d[5mC]*dT*dA*dA*dA*dT*d[5mC]*kT*kT*k[5mC]) [Compound 1074696]” was run?
Answer: 38 % UTC

Same assay, conditions: Table 23; Yap1 mRNA as percent of untreated control; 3-10-3 cEt gapmers; single dose

Question: With “1074601 (antisense k[5mC]*k[5mC]*kA*dG*d[5mC]*dT*dA*dA*d[5mC]*dT*d[5mC]*dA*dA*kA*kA*k[5mC]) [Compound 1074601]” as the substance, how does the “YAP1 (% UTC)” value read?
Answer: 24 % UTC

Question: “1074633 (antisense kG*kA*kG*dG*d[5mC]*dT*dT*dT*dT*d[5mC]*dA*dT*dA*kG*k[5mC]*kA) [Compound 1074633]” was tested. Which “YAP1 (% UTC)” value did it give?
Answer: 78 % UTC

Question: Which “YAP1 (% UTC)” value does the source give for “1074665 (antisense kT*kT*kG*d[5mC]*dA*dT*dT*d[5mC]*dT*dA*dG*dG*dT*kA*kG*kA) [Compound 1074665]” here?
Answer: 17 % UTC

Question: Which “YAP1 (% UTC)” value does the source give for “1074697 (antisense kA*kT*k[5mC]*dA*dA*dG*dG*dT*d[5mC]*d[5mC]*d[5mC]*d[5mC]*d[5mC]*kT*kA*kA) [Compound 1074697]” here?
Answer: 44 % UTC

Same assay, conditions: Table 24; Yap1 mRNA as percent of untreated control; 3-10-3 cEt gapmers targeting SEQ ID NO.: 1, and 2

Question: With “1074570 (antisense kA*kT*kG*dA*dA*d[5mC]*d[5mC]*dT*dA*d[5mC]*dT*d[5mC]*dA*k[5mC]*kT*kG) [Compound 1074570]” as the substance, how does the “YAP1 (% UTC)” value read?
Answer: 12 % UTC

Question: How did the “YAP1 (% UTC)” value turn out when “1074602 (antisense kT*k[5mC]*k[5mC]*dA*dG*d[5mC]*dT*dA*dA*d[5mC]*dT*d[5mC]*dA*kA*kA*kA) [Compound 1074602]” was run?
Answer: 24 % UTC

Question: “1074634 (antisense kG*k[5mC]*kT*dG*dA*dG*dG*d[5mC]*dT*dT*dT*dT*d[5mC]*kA*kT*kA) [Compound 1074634]” was tested. Which “YAP1 (% UTC)” value did it give?
Answer: 55 % UTC

Question: Which “YAP1 (% UTC)” value does the source give for “1074666 (antisense k[5mC]*kA*kT*dA*dT*dA*d[5mC]*d[5mC]*d[5mC]*dA*dA*dT*dT*kT*kT*kG) [Compound 1074666]” here?
Answer: 16 % UTC

Question: For “1074698 (antisense kT*kA*kT*d[5mC]*dA*dA*dG*dG*dT*d[5mC]*d[5mC]*d[5mC]*d[5mC]*k[5mC]*kT*kA) [Compound 1074698]”, which “YAP1 (% UTC)” value is on record?
Answer: 78 % UTC

Same assay, conditions: Table 25; Yap1 mRNA as percent of untreated control; 3-10-3 cEt gapmers targeting SEQ ID NO.: 1, and 2

Question: With “1074571 (antisense kT*kA*kT*dG*dA*dA*d[5mC]*d[5mC]*dT*dA*d[5mC]*dT*d[5mC]*kA*k[5mC]*kT) [Compound 1074571]” as the substance, how does the “YAP1 (% UTC)” value read?
Answer: 37 % UTC

Question: For “1074603 (antisense kT*kT*k[5mC]*d[5mC]*dA*dG*d[5mC]*dT*dA*dA*d[5mC]*dT*d[5mC]*kA*kA*kA) [Compound 1074603]”, which “YAP1 (% UTC)” value is on record?
Answer: 17 % UTC

Question: How did the “YAP1 (% UTC)” value turn out when “1074635 (antisense kT*k[5mC]*k[5mC]*d[5mC]*dA*dA*dG*d[5mC]*dT*dG*dA*dG*dG*k[5mC]*kT*kT) [Compound 1074635]” was run?
Answer: 31 % UTC

Question: How did the “YAP1 (% UTC)” value turn out when “1074667 (antisense k[5mC]*k[5mC]*k[5mC]*dA*dA*d[5mC]*dA*dA*d[5mC]*dA*dT*dG*d[5mC]*kT*kA*kT) [Compound 1074667]” was run?
Answer: 15 % UTC

Question: “1074699 (antisense k[5mC]*kT*kA*dT*d[5mC]*dA*dA*dG*dG*dT*d[5mC]*d[5mC]*d[5mC]*k[5mC]*k[5mC]*kT) [Compound 1074699]” was tested. Which “YAP1 (% UTC)” value did it give?
Answer: 27 % UTC

Same assay, conditions: Table 32; Yap1 mRNA, percent of untreated control; 3-10-3 cEt gapmers targeting SEQ ID NO.: 1, and 2

Question: With “1074642 (antisense kG*kG*kG*d[5mC]*d[5mC]*dA*dA*dA*dA*dT*dA*d[5mC]*dT*kT*kA*kG) [compound 1074642]” as the substance, how does the “YAP1 (% UTC)” value read?
Answer: 78 % UTC

Question: “1074674 (antisense kT*kA*kT*dA*dG*dG*d[5mC]*dA*d[5mC]*dT*d[5mC]*d[5mC]*dT*kT*k[5mC]*k[5mC]) [compound 1074674]” was tested. Which “YAP1 (% UTC)” value did it give?
Answer: 22 % UTC

Same assay, conditions: Table 33; Yap1 mRNA, percent of untreated control; 3-10-3 cEt gapmers targeting SEQ ID NO.: 1, and 2

Question: How did the “YAP1 (% UTC)” value turn out when “1074611 (DNA kT*kA*kG*d[5mC]*dT*dT*dA*dT*dA*dT*dT*dG*dA*kA*kG*kA) [compound 1074611]” was run?
Answer: 19 % UTC

Question: For “1074643 (antisense kT*kT*kG*dA*dA*dG*dG*dG*d[5mC]*d[5mC]*dA*dA*dA*kA*kT*kA) [compound 1074643]”, which “YAP1 (% UTC)” value is on record?
Answer: 68 % UTC

Same assay, conditions: Yap1 mRNA as percent of untreated control; A-431 cells; 3-10-3 cEt gapmers targeting SEQ ID NO.: 1, and 2; Table 30

Question: For “1074640 (antisense kG*k[5mC]*k[5mC]*dA*dA*dA*dA*dT*dA*d[5mC]*dT*dT*dA*kG*kA*kT) [compound 1074640]”, which “YAP1 (% UTC)” value is on record?
Answer: 26 % UTC

Question: “1074704 (antisense k[5mC]*kA*k[5mC]*dG*dG*dT*dG*dT*dA*dA*dG*dA*d[5mC]*kA*kA*kG) [compound 1074704]” was tested. Which “YAP1 (% UTC)” value did it give?
Answer: 16 % UTC

Same assay, conditions: Yap1 mRNA as percent of untreated control; A-431 cells; 3-10-3 cEt gapmers targeting SEQ ID NO.: 1, and 2; Table 31

Question: “1074641 (antisense kG*kG*k[5mC]*d[5mC]*dA*dA*dA*dA*dT*dA*d[5mC]*dT*dT*kA*kG*kA) [compound 1074641]” was tested. Which “YAP1 (% UTC)” value did it give?
Answer: 107 % UTC

Question: For “1074673 (antisense kA*kG*kG*d[5mC]*dA*d[5mC]*dT*d[5mC]*d[5mC]*dT*dT*d[5mC]*d[5mC]*kA*kA*kG) [compound 1074673]”, which “YAP1 (% UTC)” value is on record?
Answer: 43 % UTC

Question: For “1074705 (antisense kG*k[5mC]*kA*d[5mC]*dG*dG*dT*dG*dT*dA*dA*dG*dA*k[5mC]*kA*kA) [compound 1074705]”, which “YAP1 (% UTC)” value is on record?
Answer: 20 % UTC
